Where two headings read alike, the source gives them in different places.
Assays:
[1] = target: T1, Human Calpain 1/NS1 (Homo sapiens, UniProt P07384); experiment: Calpain inhibition continuous fluorescence (FRET) assay, Human Calpain 1/NS1; type: biochemical; settings: read-out: Human Calpain 1/NS1 IC50
T1 sequence (P07384 1-714): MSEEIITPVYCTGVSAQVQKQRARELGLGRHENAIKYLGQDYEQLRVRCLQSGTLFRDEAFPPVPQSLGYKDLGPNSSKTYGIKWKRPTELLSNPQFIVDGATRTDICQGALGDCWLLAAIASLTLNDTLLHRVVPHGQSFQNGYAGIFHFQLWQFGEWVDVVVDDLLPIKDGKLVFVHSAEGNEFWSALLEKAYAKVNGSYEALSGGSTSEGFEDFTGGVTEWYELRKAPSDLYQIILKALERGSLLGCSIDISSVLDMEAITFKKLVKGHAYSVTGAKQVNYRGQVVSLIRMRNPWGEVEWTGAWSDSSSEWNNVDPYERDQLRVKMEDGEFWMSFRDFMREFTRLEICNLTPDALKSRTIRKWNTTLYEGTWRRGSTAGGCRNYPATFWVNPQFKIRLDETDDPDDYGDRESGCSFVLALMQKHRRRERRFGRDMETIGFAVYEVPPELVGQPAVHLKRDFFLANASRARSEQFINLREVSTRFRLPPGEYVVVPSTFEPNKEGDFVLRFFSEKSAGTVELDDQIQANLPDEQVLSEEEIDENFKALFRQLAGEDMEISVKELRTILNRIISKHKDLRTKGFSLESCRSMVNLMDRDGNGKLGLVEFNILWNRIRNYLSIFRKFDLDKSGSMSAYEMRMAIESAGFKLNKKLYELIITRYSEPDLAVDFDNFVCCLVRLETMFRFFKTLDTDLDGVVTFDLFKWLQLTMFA
T1 sequence (P04632 1-268 partner): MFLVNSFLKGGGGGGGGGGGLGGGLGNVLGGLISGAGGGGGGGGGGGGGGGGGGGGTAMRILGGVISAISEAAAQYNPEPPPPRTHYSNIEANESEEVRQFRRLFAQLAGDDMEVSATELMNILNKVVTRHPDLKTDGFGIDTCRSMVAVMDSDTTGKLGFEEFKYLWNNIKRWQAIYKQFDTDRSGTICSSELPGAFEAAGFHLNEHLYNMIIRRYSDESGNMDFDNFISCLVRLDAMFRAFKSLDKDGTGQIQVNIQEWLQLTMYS
Method in brief: (§1)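 Fluorescence increase from the cleaved 5-FAM/QXL 520 substrate, read at 490/520 nm, gave activity. Calcium was supplied with the substrate to activate the enzyme in situ after a 25C enzyme-inhibitor preincubation, and IC50s were fit from initial slopes.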

[2] = target: T2, Human Calpain 2/NS1 (Homo sapiens, UniProt P17655); experiment: Calpain inhibition continuous fluorescence (FRET) assay, Human Calpain 2/NS1; type: biochemical; settings: read-out: Human Calpain 2/NS1 IC50
T2 sequence (P17655 1-700): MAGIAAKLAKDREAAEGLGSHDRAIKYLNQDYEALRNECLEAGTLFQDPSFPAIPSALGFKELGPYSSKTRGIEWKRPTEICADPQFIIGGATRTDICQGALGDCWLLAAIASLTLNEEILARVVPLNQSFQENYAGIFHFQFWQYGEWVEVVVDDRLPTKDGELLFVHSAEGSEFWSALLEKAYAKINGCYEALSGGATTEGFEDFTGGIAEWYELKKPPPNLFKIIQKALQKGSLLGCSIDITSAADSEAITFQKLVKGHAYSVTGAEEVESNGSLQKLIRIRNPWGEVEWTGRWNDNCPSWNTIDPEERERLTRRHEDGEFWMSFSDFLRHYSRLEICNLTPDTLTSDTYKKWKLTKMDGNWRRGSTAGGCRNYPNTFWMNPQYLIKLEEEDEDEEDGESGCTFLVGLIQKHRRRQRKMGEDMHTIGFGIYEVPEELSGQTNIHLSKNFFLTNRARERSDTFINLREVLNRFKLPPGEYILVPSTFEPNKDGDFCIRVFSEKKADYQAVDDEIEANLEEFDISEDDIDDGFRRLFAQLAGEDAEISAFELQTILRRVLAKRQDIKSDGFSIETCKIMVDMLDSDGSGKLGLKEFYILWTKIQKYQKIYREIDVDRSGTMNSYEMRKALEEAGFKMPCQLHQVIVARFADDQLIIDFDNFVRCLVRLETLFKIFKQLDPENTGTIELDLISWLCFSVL
T2 sequence (P04632 1-268 partner): T1 sequence (P04632 1-268 partner)
Method in brief: as §1

[3] = tested on: Calpain activity in SH-SY5Y cells (SBDP-150); experiment: SH-SY5Y Spectrin western blot assay (SBDP-150 breakdown product, A23187-induced); type: cell-based; settings: Homo sapiens, SH-SY5Y cells, read-out: SH-SY5Y Spectrin IC50
[4] = tested on: Calpain activity in SH-SY5Y cells; experiment: SH-SY5Y + AMC fluorescence assay (Suc-LLVY-AMC substrate); type: cell-based; settings: read-out: SH-SY5Y + AMC IC50
[5] = target: T3, Human Calpain 9/NS1 (Homo sapiens, UniProt O14815); experiment: Calpain inhibition continuous fluorescence (FRET) assay, Human Calpain 9/NS1; type: biochemical; settings: read-out: Human Calpain 9/NS1 IC50
T3 sequence (O14815 1-690): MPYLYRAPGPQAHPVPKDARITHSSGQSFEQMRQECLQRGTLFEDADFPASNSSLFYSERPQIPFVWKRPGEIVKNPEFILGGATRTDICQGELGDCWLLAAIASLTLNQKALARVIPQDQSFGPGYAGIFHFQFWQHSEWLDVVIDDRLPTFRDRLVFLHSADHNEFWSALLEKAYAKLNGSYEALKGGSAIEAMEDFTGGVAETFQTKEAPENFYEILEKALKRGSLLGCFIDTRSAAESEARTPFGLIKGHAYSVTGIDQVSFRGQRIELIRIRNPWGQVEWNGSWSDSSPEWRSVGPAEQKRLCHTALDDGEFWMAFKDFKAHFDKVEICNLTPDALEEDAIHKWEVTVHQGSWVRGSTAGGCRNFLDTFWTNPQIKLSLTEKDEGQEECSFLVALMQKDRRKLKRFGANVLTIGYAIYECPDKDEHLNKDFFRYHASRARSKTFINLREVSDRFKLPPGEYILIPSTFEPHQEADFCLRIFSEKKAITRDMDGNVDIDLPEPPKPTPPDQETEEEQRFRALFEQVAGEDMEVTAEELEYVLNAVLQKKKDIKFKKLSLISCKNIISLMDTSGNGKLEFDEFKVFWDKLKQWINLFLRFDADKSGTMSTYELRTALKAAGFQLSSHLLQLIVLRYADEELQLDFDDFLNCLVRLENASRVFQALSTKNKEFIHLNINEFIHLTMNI
T3 sequence (P04632 1-268 partner): T1 sequence (P04632 1-268 partner)
Method in brief: as §1

[6] = Column D, A23187-induced SBDP-150
[7] = A23187-induced SBDP-150, western blot

Cn1cc(C(=O)N[C@@H](Cc2ccccc2)C(=O)C(N)=O)c(-c2ccncc2)n1 [Compound 170, (S)—N-(4-amino-3,4-dioxo-1-phenylbutan-2-yl)-1-methyl-3-(pyridin-4-yl)-1H-pyrazole-4-carboxamide]
IC50 ([1]; Column A): < 3 µM | IC50 ([2]; Column B): < 3 µM | IC50 [3, 6]: > 25 µM | IC50 ([4]; Column E): > 25 µM | IC50 ([5]; Column C): < 3 µM

Cc1cc(C(=O)NC(Cc2ccccc2)C(=O)C(=O)NC2CC2)n(-c2ccccn2)n1 (centres unmarked) [Compound 456, N-(4-(cyclopropylamino)-3,4-dioxo-1-phenylbutan-2-yl)-3-methyl-1-(pyridin-2-yl)-1H-pyrazole-5-carboxamide]
IC50 [1]: < 3 µM | IC50 [2]: < 3 µM | IC50 [3, 7]: > 25 µM | IC50 [4]: < 10 µM | IC50 [5]: < 3 µM

Cn1ncc(C(=O)N[C@@H](Cc2ccccc2)C(=O)C(N)=O)c1-c1ccccc1 [Compound 45, (S)—N-(4-amino-3,4-dioxo-1-phenylbutan-2-yl)-1-methyl-5-phenyl-1H-pyrazole-4-carboxamide]
IC50 ([1]; Column A): < 3 µM | IC50 ([2]; Column B): < 3 µM | IC50 [3, 6]: > 25 µM | IC50 ([4]; Column E): 10 to 25 µM | IC50 ([5]; Column C): < 3 µM

CN(C)C(=O)CNC(=O)C(=O)[C@H](Cc1ccccc1)NC(=O)c1cn(C)nc1-c1ccccc1 [Compound 337, (S)—N-(4-((2-(dimethylamino)-2-oxoethyl)amino)-3,4-dioxo-1-phenylbutan-2-yl)-1-methyl-3-phenyl-1H-pyrazole-4-carboxamide]
IC50 [1]: < 3 µM | IC50 [2]: < 3 µM | IC50 [3, 7]: < 10 µM | IC50 [4]: < 10 µM | IC50 [5]: < 3 µM

NC(=O)C(=O)C(Cc1ccccc1)NC(=O)c1cn(C(F)F)nc1-c1cccc2c1OCCO2 (centres unmarked) [Compound 555]
IC50 [1]: < 3 µM | IC50 [2]: < 3 µM | IC50 [3, 7]: > 25 µM | IC50 [4]: < 10 µM | IC50 [5]: < 3 µM

NC(=O)C(=O)[C@H](Cc1ccccc1)NC(=O)c1ocnc1-c1ccccc1 [Compound 303, (S)—N-(4-amino-3,4-dioxo-1-phenylbutan-2-yl)-4-phenyloxazole-5-carboxamide]
IC50 ([1]; Column A): < 3 µM | IC50 ([2]; Column B): < 3 µM | IC50 [3, 6]: 10 to 25 µM | IC50 ([4]; Column E): < 10 µM | IC50 ([5]; Column C): < 3 µM

COC(=O)NCc1ccc(-n2nc(C)cc2C(=O)N[C@@H](Cc2ccccc2)C(=O)C(N)=O)cc1 [Compound 158, Methyl (S)-(4-(5-((4-amino-3,4-dioxo-1-phenylbutan-2-yl)carbamoyl)-3-methyl-1H-pyrazol-1-yl)benzyl)carbamate]
IC50 ([1]; Column A): < 3 µM | IC50 ([2]; Column B): < 3 µM | IC50 [3, 6]: 10 to 25 µM | IC50 ([4]; Column E): > 25 µM | IC50 ([5]; Column C): < 3 µM

Cc1nc(-c2cccc(F)c2F)c(C(=O)NC(Cc2ccccc2)C(=O)C(N)=O)o1 (centres unmarked) [Compound 361, N-(4-amino-3,4-dioxo-1-phenylbutan-2-yl)-4-(2,3-difluorophenyl)-2-methyloxazole-5-carboxamide]
IC50 [1]: < 3 µM | IC50 [2]: < 3 µM | IC50 [3, 7]: < 10 µM | IC50 [4]: < 10 µM | IC50 [5]: < 3 µM

CC[C@@H](C)[C@H](NC(=O)c1oc(C)nc1-c1ccccc1)C(=O)C(N)=O [Compound 387, N-((3S,4R)-1-amino-4-methyl-1,2-dioxohexan-3-yl)-2-methyl-4-phenyloxazole-5-carboxamide]
IC50 [1]: < 3 µM | IC50 [2]: < 3 µM | IC50 [3, 7]: > 25 µM | IC50 [4]: > 25 µM | IC50 [5]: < 3 µM

Cc1nc(-c2ccccc2)c(C(=O)N[C@@H](Cc2ccc(F)cc2)C(=O)C(N)=O)o1 [Compound 107, (S)—N-(4-amino-1-(4-fluorophenyl)-3,4-dioxobutan-2-yl)-2-methyl-4-phenyloxazole-5-carboxamide]
IC50 ([1]; Column A): < 3 µM | IC50 ([2]; Column B): < 3 µM | IC50 [3, 6]: < 10 µM | IC50 ([4]; Column E): < 10 µM | IC50 ([5]; Column C): < 3 µM

NC(=O)C(=O)C(Cc1ccccc1)NC(=O)c1cn(C(F)F)nc1-c1cc(F)cc(F)c1 (centres unmarked) [Compound 523, N-(4-amino-3,4-dioxo-1-phenylbutan-2-yl)-1-(difluoromethyl)-3-(3,5-difluorophenyl)-1H-pyrazole-4-carboxamide]
IC50 [1]: < 3 µM | IC50 [3, 7]: 10 to 25 µM | IC50 [4]: < 10 µM

CCn1cc(C(=O)NC(Cc2ccccc2)C(=O)C(N)=O)c(-c2cccc(F)c2)n1 (centres unmarked) [Compound 470, N-(4-amino-3,4-dioxo-1-phenylbutan-2-yl)-1-ethyl-3-(3-fluorophenyl)-1H-pyrazole-4-carboxamide]
IC50 [1]: < 3 µM | IC50 [2]: < 3 µM | IC50 [3, 7]: 10 to 25 µM | IC50 [4]: < 10 µM

NC(=O)C(=O)C(Cc1ccccc1)NC(=O)c1nsnc1-c1ccc2c(c1)OC(F)(F)O2 (centres unmarked) [Compound 599, N-(4-amino-3,4-dioxo-1-phenylbutan-2-yl)-4-(2,2-difluorobenzo[d][1,3]dioxol-5-yl)-1,2,5-thiadiazole-3-carboxamide]
IC50 [3, 7]: > 25 µM | IC50 [4]: > 25 µM | IC50 [5]: < 3 µM

Cc1nc(-c2cccc(F)c2)c(C(=O)N[C@@H](Cc2ccccc2)C(=O)C(N)=O)o1 [Compound 254, (S)—N-(4-amino-3,4-dioxo-1-phenylbutan-2-yl)-4-(3-fluorophenyl)-2-methyloxazole-5-carboxamide]
IC50 ([1]; Column A): < 3 µM | IC50 [3, 6]: 10 to 25 µM | IC50 ([4]; Column E): < 10 µM | IC50 ([5]; Column C): < 3 µM

NC(=O)C(=O)[C@H](Cc1ccccc1)NC(=O)c1cn(C(F)F)nc1-c1ccccc1 [Compound 379, (S)—N-(4-amino-3,4-dioxo-1-phenylbutan-2-yl)-1-(difluoromethyl)-3-phenyl-1H-pyrazole-4-carboxamide]
IC50 [1]: < 3 µM | IC50 [3, 7]: < 10 µM | IC50 [4]: < 10 µM | IC50 [5]: < 3 µM

Reference: patent publication US11339130B1 (Blade Therapeutics, Inc., priority 2016, dated 2022)
